“And” between values parts separate entries of the source, which are not always exact repeats. Identical values can stand only once. Like-named read-outs stand apart in the source and are kept apart here.
Assays:
NdmB-His6 = molecular target: T1, NdmB-His6 (Pseudomonas putida, UniProt H9N290); test: Methylxanthine N-demethylase assay and kinetics, NdmB-His6 with His6-NdmD; assay type: biochemical, Pseudomonas putida CBB5; details: for N-demethylase activity: NdmB; for Km: 30° C., pH 7.5, ∞ where no activity
T1 construct: made in house; host or cells: E. coli BL21(DE3)
T1 sequence (H9N290 1-355): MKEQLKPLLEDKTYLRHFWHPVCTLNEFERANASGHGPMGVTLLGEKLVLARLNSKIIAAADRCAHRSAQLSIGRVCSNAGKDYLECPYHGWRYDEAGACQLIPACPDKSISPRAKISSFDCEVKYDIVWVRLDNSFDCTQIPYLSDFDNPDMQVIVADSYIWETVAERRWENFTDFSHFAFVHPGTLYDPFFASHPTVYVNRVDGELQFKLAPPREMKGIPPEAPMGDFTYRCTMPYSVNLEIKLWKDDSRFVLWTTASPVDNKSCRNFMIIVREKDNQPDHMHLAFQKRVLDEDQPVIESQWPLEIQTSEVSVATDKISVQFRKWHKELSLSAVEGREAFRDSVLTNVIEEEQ
Description: (§1) Methylxanthine N-demethylase activity assay contained, in 1-ml total volume, 0.5 mM methylxanthine, 1 mM NADH, 50 μM Fe(NH4)2(SO4)2, and an appropriate amount of NdmA-His6 or NdmB-His6 (7.4 μg-2.5 mg protein depending on substrate specificity) in 50 mM KPi buffer (pH 7.5). Approximately 4 U of partially purified reductase, prepared as described previously (Summers et al., 2011) or 59 U of purified His6-NdmD was added to reaction mixture. Catalase from bovine liver (4,000 U) was also added to reactions containing His6-NdmD. The reaction mixture was incubated at 30° C. with 300 rpm shaking on an incubating microplate shaker (VWR, Radnor, Pa.). Periodically, a small aliquot was sampled from the reaction mixture and mixed with equal volume of acetonitrile for quantifying concentrations of methylxanthines and N-demethylated products by HPLC. One unit of N-demethylase activity was defined as the consumption of one […] methylxanthine per minute.
(§2) Apparent kinetic parameters of NdmA-His6 and NdmB-His6 were determined by measuring the initial rate of disappearance (vo) of methylxanthines in 50 mM KPi buffer (pH 7.5) at 30° C. The initial substrate concentrations (ESI) used in these experiments were from 25 to 500 μM. Substrates were incubated with His6-NdmD plus either NdmA-His6 or NdmB-His6 under standard conditions for 15 minutes. At 1, 5, 10, and 15 minutes, samples were removed from the reaction mixtures to quantitate substrate concentrations by HPLC. Plots of substrate concentrations against time were used to determine the initial rates of disappearance of substrates which were linear over 15 minutes. The apparent kinetic parameters were determined from Michaelis-Menten plots of vo against [S] fitted with the equation

NdmA-His6 = molecular target: T2, NdmA-His6 (Pseudomonas putida, UniProt H9N289); test: Methylxanthine N-demethylase assay and kinetics, NdmA-His6 with His6-NdmD; assay type: biochemical, Pseudomonas putida CBB5
T2 construct: made in house; host or cells: E. coli BL21(DE3)
T2 sequence (H9N289 1-351): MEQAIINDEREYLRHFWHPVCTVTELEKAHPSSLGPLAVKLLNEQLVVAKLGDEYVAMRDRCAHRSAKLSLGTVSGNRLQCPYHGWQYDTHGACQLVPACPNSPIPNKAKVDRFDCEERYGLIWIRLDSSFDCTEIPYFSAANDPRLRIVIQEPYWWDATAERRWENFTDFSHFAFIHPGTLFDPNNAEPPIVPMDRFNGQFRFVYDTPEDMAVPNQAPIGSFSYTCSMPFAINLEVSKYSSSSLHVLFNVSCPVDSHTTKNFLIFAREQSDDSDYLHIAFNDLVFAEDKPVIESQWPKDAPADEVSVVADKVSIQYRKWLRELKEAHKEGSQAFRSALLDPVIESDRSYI
Description: as §1, §2

[1] = molecular target: T3, N-demethylase (Ndm: NdmA and NdmB subunits) (Pseudomonas putida, UniProt H9N289+H9N290); test: Methylxanthine N-demethylase activity assay with purified Ndm plus partially purified Ccr; assay type: biochemical, Pseudomonas putida CBB5; details: for Products identified: same products at 500 and 200 μM substrate; for Relative N-demethylase activity: relative to paraxanthine; for O-demethylation by Ndm: prolonged incubation
T3 construct: lane 3, natural Ndm purified from P. putida CBB5; made in house; host or cells: purified from the natural strain Pseudomonas putida CBB5 (DEAE, Phenyl and Q Sepharose); not recombinant
T3 sequence (H9N289 1-351): T2 sequence (H9N289 1-351)
T3 sequence (H9N290 1-355): T1 sequence (H9N290 1-355)
Description: Methylxanthine N-demethylase activity assay contained, in 1-mL total volume, 0.5 mM methylxanthine, 1 mM NADH, 50 μM Fe(NH4)2(SO4)2, and an appropriate amount of Ndm (0.08-7.5 mg protein, depending on purity of the protein) in 50 mM KPi buffer. Approximately 4 U of partially purified Ccr was added to reaction mixture when assaying Ndm in Phenyl Sepharose and Q Sepharose eluant-fractions (Ccr was not added to the enzyme reaction mixture when assaying Ndm activity in DEAE Sepharose eluant-fractions because Ccr co-eluted with Ndm). The reaction mixture was incubated at 30° C. with 300 rpm shaking on an incubating microplate shaker (VWR). Periodically, a small aliquot was sampled from the reaction mixture and mixed with equal volume of acetonitrile for quantifying concentrations of methylxanthines and N-demethylated products by HPLC. One unit of N-demethylase activity was defined as the consumption of one μmole methylxanthine per minute. When Ndm was coupled with the reductase and ferredoxin components of naphthalene dioxygenase of Pseudomonas sp. strain 9816 (Haigler & Gibson, 1990a; Haigler & Gibson, 1990b), 30 and 100 μg of the respective proteins were used. Spinach ferredoxin reductase and ferredoxin were also substituted for Ccr as described by Subramanian et al. (1979).
Determination of Kinetic Parameters. Apparent kinetic parameters of Ndm were determined by measuring the initial rate of disappearance (vo) of paraxanthine or 7-methylxanthine in 50 mM KPi buffer (pH 7.5) at 30° C. The paraxanthine and 7-methylxanthine concentrations ([S]) used in these experiments were from 20 to 500 μM. Substrates were incubated with Ndm and Ccr under standard conditions for 15 minutes. At 1, 5, 10, and 15 minutes, samples were removed from the reaction mixtures to quantitate substrate concentrations by HPLC. Plots of substrate concentrations against time were used to determine the initial rates of disappearance of substrates which were linear over 15 minutes. The apparent kinetic parameters were determined from Michaelis-Menten plots of Vo against [S] fitted with the equation
Determination of Oxygen Requirement. Oxygen consumption by Ndm during N-demethylation of paraxanthine was determined in a closed reaction vessel equipped with a Clarke-type oxygen electrode (Digitial Modell 0, Rank Brothers Ltd., Cambridge, England). The electrode was calibrated by using glucose oxidase (Sigma) and glucose for consumption of oxygen. Ndm activity assay was performed at 30° C. in a total volume of 1 ml of air-saturated 50 mM KPi buffer (pH 7.5) with 100 μM paraxanthine, 200 μM NADH, 50 μM Fe(NH4)2(SO4)2, 0.2 mg purified Ndm, and 4 U partially purified Ccr. The reaction was initiated by adding Ndm and partially purified Ccr after equilibration of all other reaction components for 3.3 minutes. After 13 minutes, a 100-μL aliquot was withdrawn from the reaction, immediately mixed with equal volume of acetonitrile to stop the enzyme reaction, and analyzed for N-demethylation product by HPLC. Background oxygen consumption, possibly due to NADH oxidase enzyme activity in the partially purified Ccr, was quantitated in control reactions containing all reaction components except paraxanthine.
Formaldehyde Determination. […] Twenty μL Nash reagent was added to 50 μl Ndm reaction sample plus 50 μl acetonitrile. This mixture was incubated at 51° C. for 12 minutes.

[2] = tested on: cell extracts prepared from P. putida CBB5; test: NADH-dependent N-demethylase activity of CBB5 cell extracts; assay type: biochemical, Pseudomonas putida CBB5; details: 0.5 mM substrate, 7.2 mg mL^−1 protein
[3] = molecular target: T4, Caffeine dehydrogenase (Cdh) from CBB1 (Pseudomonas sp., UniProt D7REY3); details: cited from earlier work
T4 sequence (D7REY3 1-791): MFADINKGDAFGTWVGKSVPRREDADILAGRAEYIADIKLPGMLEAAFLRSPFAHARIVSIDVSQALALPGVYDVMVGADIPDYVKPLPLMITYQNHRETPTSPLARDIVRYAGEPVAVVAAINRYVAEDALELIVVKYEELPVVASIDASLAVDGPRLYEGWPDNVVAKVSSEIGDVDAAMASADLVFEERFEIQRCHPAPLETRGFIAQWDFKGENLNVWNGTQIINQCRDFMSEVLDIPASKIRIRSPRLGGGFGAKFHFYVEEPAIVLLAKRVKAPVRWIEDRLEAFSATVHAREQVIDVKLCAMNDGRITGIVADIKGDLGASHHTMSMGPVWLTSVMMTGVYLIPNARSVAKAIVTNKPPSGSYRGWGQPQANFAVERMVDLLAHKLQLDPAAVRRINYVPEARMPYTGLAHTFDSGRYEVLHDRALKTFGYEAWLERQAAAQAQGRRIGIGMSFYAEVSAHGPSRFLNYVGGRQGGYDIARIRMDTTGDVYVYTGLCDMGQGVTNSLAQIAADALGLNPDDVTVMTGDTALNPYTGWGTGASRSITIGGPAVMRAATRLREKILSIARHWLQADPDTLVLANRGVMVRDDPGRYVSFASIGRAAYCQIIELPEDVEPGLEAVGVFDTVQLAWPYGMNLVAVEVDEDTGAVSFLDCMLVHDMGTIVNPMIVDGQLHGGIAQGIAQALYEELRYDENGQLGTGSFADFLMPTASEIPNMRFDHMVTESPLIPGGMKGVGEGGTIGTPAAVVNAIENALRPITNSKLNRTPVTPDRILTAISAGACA
T4 sequence (D7REY4 1-295 partner): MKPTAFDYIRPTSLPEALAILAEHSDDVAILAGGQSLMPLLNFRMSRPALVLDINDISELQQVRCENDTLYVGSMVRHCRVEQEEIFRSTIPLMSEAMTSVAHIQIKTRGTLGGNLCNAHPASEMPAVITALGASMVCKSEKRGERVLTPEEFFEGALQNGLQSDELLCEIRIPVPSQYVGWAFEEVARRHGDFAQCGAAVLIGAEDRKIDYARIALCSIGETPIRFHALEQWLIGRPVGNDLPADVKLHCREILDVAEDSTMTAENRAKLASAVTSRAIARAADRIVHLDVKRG
T4 sequence (D7REY5 1-167 partner): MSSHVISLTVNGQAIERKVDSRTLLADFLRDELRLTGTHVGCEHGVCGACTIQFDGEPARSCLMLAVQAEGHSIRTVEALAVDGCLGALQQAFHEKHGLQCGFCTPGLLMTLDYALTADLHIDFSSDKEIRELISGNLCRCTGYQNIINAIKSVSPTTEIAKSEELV

[4] = 100 μM paraxanthine, 0.2 mg Ndm, 4 U Ccr, after 13 minutes

Cn1c(=O)[nH]c2nc[nH]c2c1=O [1-methylxanthine]
N-demethylase activity (NdmB-His6): no activity
Km (NdmB-His6; NdmB-His6): ∞
catalytic efficiency relative to theophylline (NdmA-His6; NdmA): two orders of magnitude lower
Product (NdmA-His6; NdmA-His6): Xanthine

Cn1c(=O)[nH]c(=O)c2[nH]cnc21 [3-Methylxanthine, 3-methylxanthine]
Product (NdmB-His6; NdmB-His6): Xanthine
Products identified [1]: xanthine
Relative N-demethylase activity ([1]; substrate conc. 200 μM): 68.9 ± 2.6
Relative N-demethylase activity ([1]; substrate conc. 500 μM): 55.2 ± 6.0
N-demethylase activity (NdmA-His6; NdmA): inactive
Km (NdmA-His6; NdmA-His6, 30° C., pH 7.5, ∞ where no activity): ∞

Cn1c(=O)[nH]c2ncn(C)c2c1=O [Paraxanthine, 1,7-dimethylxanthine]
N-demethylase activity (NdmB-His6): no activity
Km (NdmB-His6; NdmB-His6): ∞
N-demethylation by NdmC fraction (NdmC): not N-demethylated
oxygen consumed during N-demethylation [1, 4]: 79.5 µM
paraxanthine N-demethylated [1, 4]: 60.2 µM
Products identified [1]: xanthine and 7-methylxanthine,
Relative N-demethylase activity ([1]; substrate conc. 200 μM): 100.0 ± 3.7
Relative N-demethylase activity ([1]; substrate conc. 500 μM): 100.0 ± 3.1
time to complete utilization ([2]; 0.5 mM NADH): about 20 minutes

Cn1c(=O)c2[nH]cnc2n(C)c1=O [Theophylline, 1,3-dimethylxanthine]
activity of Cdh [3]: no activity
activity of Cdh ([3]; substrate specificity study): 5%
Products identified [1]: 1- & 3-methylxanthine, and xanthine
Relative N-demethylase activity ([1]; substrate conc. 200 μM): 14.2 ± 1.6
Relative N-demethylase activity ([1]; substrate conc. 500 μM): 17.6 ± 1.0
degradation rate compared with paraxanthine [2]: significantly slower

COc1cc(C(=O)O)ccc1O [vanillate]
O-demethylation by Ndm [1]: did not catalyze O-demethylation

COc1cc(C=O)ccc1O [vanillin]
O-demethylation by Ndm [1]: did not catalyze O-demethylation

O=c1[nH]c(=O)c2[nH]cnc2[nH]1 [xanthine]
activity of Cdh [3]: no activity and none
product formed from paraxanthine ([1]; 7.4 mU / 7.4 units of Ndm, 90 minutes): 193.7 ± 4.0 µM and 193.7 ± 14.0 µM
N-demethylation product present ([1]; from paraxanthine, after 13 minutes): ~20.3 µM

Reference: patent US8951752B2, “N-demethyase genes and uses thereof” (priority 2011, dated 2015)
